Source: publication PMC7002685, “Inhibition of vascular calcification by inositol phosphates derivatized with ethylene glycol oligomers” (Nature Communications, 2020)

Experiments:
[1] = test system: serum CPP; assay: CPP calcium, CPP2 hydrodynamic diameter and T50 in rat sera at sacrifice; type: in vivo, male Wistar rats; details: 5, 15, 50 mg/kg/day
Procedure: The inhibitory effect of (OEG2)2-IP4 on heart calcifications was significant starting at 15 mg/kg/day (Fig. 6b). The compound’s activity was also evident following von Kossa staining (Fig. 6c) on the thoracic part of the aorta, and quantification of the von Kossa-positive area (Fig. 6d). […] In the femoral artery, reduction in bulk calcium was insignificant for all tested groups, likely due to the low level of calcification detected in the vehicle control (Fig. 6f, Supplementary Table 9).
DLS analysis of CPPs induced in serum samples collected from in vivo adenine-induced VC studies and stored at −20 °C was performed as described for human serum samples and CPP hydrodynamic diameter development was monitored by hourly DLS measurements.
The first group was treated with vehicle (double distilled (d.d.) water), the second, third, and fourth groups were treated with daily doses equivalent of 5, 15, and 50 mg/kg of (OEG2)2-IP4, respectively, in 2 mL d.d. water starting 1 week after the administration of the adenine diet. […] Serum samples were analyzed for creatinine according to the Jaffe method, calcium (using flame atomic absorption spectrometry[74]), and phosphate (DiaSys Diagnostic Systems, Holzheim, Germany) concentrations. […] In addition, serum aliquots were centrifuged (10,000 × g, 4 °C, 30 min) and T50’s were determined as described above. […]

[2] = biological target: T1, Cholinesterase, Acetyl, ACES (Homo sapiens, UniProt P22303); assay: Off-target 104010; type: biochemical
T1 construct: purchased Eurofins Panlabs Discovery Services Taiwan, Ltd
Procedure: (§1) The potential off-target activity of 10 µM (OEG2)2-IP4 was assessed against a panel of 87 enzymes, receptors, or ion channels that are used in standard safety pharmacology screens.
(§2) 3.2. Off-target screening assay
(§3) The experiments were conducted by a contract research organization (Eurofins Panlabs Discovery
(§4) Services Taiwan, Ltd.) and details on the respective assays can be retrieved via the catalog number
(§5) provided in Supplementary Table 11 from the company’s webpage
(§6) (https://www.eurofinsdiscoveryservices.com/). […]

[3] = test system: Androgen (Testosterone); assay: Off-target 206000; type: binding, Human; details: 10 µM
Procedure: as §1, §2, §3, §4, §5, §6

[4] = biological target: T2, Serotonin (5-Hydroxytryptamine) 5-HT1A (Homo sapiens, UniProt P08908); assay: Off-target 271110; type: binding
T2 construct: purchased Eurofins Panlabs Discovery Services Taiwan, Ltd
Procedure: as §1, §2, §3, §4, §5, §6

[5] = test system: vascular calcification; assay: Vitamin D3 (oral) + warfarin diet rat model of VC

T1 sequence (P22303 32-614): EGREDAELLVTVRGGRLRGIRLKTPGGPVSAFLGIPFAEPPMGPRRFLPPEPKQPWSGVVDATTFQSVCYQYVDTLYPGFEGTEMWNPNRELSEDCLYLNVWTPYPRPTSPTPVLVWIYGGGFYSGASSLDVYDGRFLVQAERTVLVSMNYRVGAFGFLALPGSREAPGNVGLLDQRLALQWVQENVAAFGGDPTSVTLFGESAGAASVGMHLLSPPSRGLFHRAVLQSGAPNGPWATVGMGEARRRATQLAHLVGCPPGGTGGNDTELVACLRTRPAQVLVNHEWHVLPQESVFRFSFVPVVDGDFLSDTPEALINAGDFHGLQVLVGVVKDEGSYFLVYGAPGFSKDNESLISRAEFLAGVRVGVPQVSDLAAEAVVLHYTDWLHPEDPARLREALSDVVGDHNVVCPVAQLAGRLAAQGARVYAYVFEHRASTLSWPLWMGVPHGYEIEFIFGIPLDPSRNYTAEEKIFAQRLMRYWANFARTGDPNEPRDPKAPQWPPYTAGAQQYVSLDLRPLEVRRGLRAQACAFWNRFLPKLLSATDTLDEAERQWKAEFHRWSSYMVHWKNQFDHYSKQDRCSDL
T2 sequence (P08908 whole entry): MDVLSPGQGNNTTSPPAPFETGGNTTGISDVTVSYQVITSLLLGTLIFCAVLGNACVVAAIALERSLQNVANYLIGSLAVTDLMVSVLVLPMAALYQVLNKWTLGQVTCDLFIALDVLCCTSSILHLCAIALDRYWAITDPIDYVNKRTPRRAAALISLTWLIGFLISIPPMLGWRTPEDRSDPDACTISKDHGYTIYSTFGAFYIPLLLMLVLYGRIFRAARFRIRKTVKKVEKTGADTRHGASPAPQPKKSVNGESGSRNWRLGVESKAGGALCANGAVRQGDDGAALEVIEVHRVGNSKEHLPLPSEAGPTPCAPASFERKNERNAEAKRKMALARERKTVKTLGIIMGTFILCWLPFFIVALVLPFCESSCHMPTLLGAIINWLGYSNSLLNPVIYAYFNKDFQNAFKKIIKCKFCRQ

## COCCOCCO[C@@H]1[C@@H](OP(=O)(O)O)[C@H](OCCOCCOC)[C@@H](OP(=O)(O)O)[C@@H](OP(=O)(O)O)[C@H]1OP(=O)(O)O [(OEG2)2-IP4, 4,6-Di-O-(methoxy-diethyleneglycol)-myo-inositol-1,2,3,5-tetrakis(phosphate)]
[1]
  serum CPP calcium content, CPP2 hydrodynamic diameter and T50 in sera at sacrifice: did not differ between treatment groups
[2]
  inhibition at 10 µM: 5%
[3]
  % Inhibition: 12%
[4]
  inhibition at 10 µM: 11%
[5]; 1x12.5, Day 0
  animals alive (Figure 5d): 12
  survival (Figure 5d): 100%
[5]; 1x12.5, Day 4.99
  animals alive (Figure 5d): 12
  survival (Figure 5d): 100%
[5]; 1x12.5, Day 5.01
  animals alive (Figure 5d): 11
  survival (Figure 5d): 92%
[5]; 1x12.5, Day 5.99
  animals alive (Figure 5d): 11
  survival (Figure 5d): 92%
[5]; 1x12.5, Day 6.01
  animals alive (Figure 5d): 9
  survival (Figure 5d): 75%
[5]; 1x12.5, Day 6.99
  animals alive (Figure 5d): 9
  survival (Figure 5d): 75%
[5]; 1x12.5, Day 7.01
  animals alive (Figure 5d): 7
  survival (Figure 5d): 58%
[5]; 1x12.5, Day 7.99
  animals alive (Figure 5d): 7
  survival (Figure 5d): 58%
[5]; 1x12.5, Day 8.01
  animals alive (Figure 5d): 7
  survival (Figure 5d): 58%
[5]; 1x12.5, Day 8.1
  animals alive (Figure 5d): 7
  survival (Figure 5d): 58%
[5]; 1x12.5 to 2x50 mg/kg/day
  calcification in the femoral artery: dose-dependently prevents calcification in the femoral artery
[5]; 1x25, Day 0
  animals alive (Figure 5d): 12
  survival (Figure 5d): 100%
[5]; 1x25, Day 4.99
  animals alive (Figure 5d): 12
  survival (Figure 5d): 100%
[5]; 1x25, Day 5.01
  animals alive (Figure 5d): 12
  survival (Figure 5d): 100%
[5]; 1x25, Day 5.99
  animals alive (Figure 5d): 12
  survival (Figure 5d): 100%
[5]; 1x25, Day 6.01
  animals alive (Figure 5d): 10
  survival (Figure 5d): 83%
[5]; 1x25, Day 6.99
  animals alive (Figure 5d): 10
  survival (Figure 5d): 83%
[5]; 1x25, Day 7.01
  animals alive (Figure 5d): 8
  survival (Figure 5d): 67%
[5]; 1x25, Day 7.99
  animals alive (Figure 5d): 8
  survival (Figure 5d): 67%
[5]; 1x25, Day 8.01
  animals alive (Figure 5d): 8
  survival (Figure 5d): 67%
[5]; 1x25, Day 8.1
  animals alive (Figure 5d): 8
  survival (Figure 5d): 67%
[5]; 1x50, Day 0
  animals alive (Figure 5d): 19
  survival (Figure 5d): 100%
[5]; 1x50, Day 4.99
  animals alive (Figure 5d): 19
  survival (Figure 5d): 100%
[5]; 1x50, Day 5.01
  animals alive (Figure 5d): 19
  survival (Figure 5d): 100%
[5]; 1x50, Day 5.99
  animals alive (Figure 5d): 19
  survival (Figure 5d): 100%
[5]; 1x50, Day 6.01
  animals alive (Figure 5d): 19
  survival (Figure 5d): 100%
[5]; 1x50, Day 6.99
  animals alive (Figure 5d): 19
  survival (Figure 5d): 100%
[5]; 1x50, Day 7.01
  animals alive (Figure 5d): 17
  survival (Figure 5d): 89%
[5]; 1x50, Day 7.99
  animals alive (Figure 5d): 17
  survival (Figure 5d): 89%
[5]; 1x50, Day 8.01
  animals alive (Figure 5d): 15
  survival (Figure 5d): 79%
[5]; 1x50, Day 8.1
  animals alive (Figure 5d): 15
  survival (Figure 5d): 79%
[5]; 2 x 25 mg/kg s.c.
  survival: 100%
[5]; 2x25, Day 0
  animals alive (Figure 5d): 18
  survival (Figure 5d): 100%
[5]; 2x25, Day 4.99
  animals alive (Figure 5d): 18
  survival (Figure 5d): 100%
[5]; 2x25, Day 5.01
  animals alive (Figure 5d): 18
  survival (Figure 5d): 100%
[5]; 2x25, Day 5.99
  animals alive (Figure 5d): 18
  survival (Figure 5d): 100%
[5]; 2x25, Day 6.01
  animals alive (Figure 5d): 18
  survival (Figure 5d): 100%
[5]; 2x25, Day 6.99
  animals alive (Figure 5d): 18
  survival (Figure 5d): 100%
[5]; 2x25, Day 7.01
  animals alive (Figure 5d): 18
  survival (Figure 5d): 100%
[5]; 2x25, Day 7.99
  animals alive (Figure 5d): 18
  survival (Figure 5d): 100%
[5]; 2x25, Day 8.01
  animals alive (Figure 5d): 18
  survival (Figure 5d): 100%
[5]; 2x25, Day 8.1
  animals alive (Figure 5d): 18
  survival (Figure 5d): 100%
[5]; 2x50, Day 0
  animals alive (Figure 5d): 19
  survival (Figure 5d): 100%
[5]; 2x50, Day 4.99
  animals alive (Figure 5d): 19
  survival (Figure 5d): 100%
[5]; 2x50, Day 5.01
  animals alive (Figure 5d): 19
  survival (Figure 5d): 100%
[5]; 2x50, Day 5.99
  animals alive (Figure 5d): 19
  survival (Figure 5d): 100%
[5]; 2x50, Day 6.01
  animals alive (Figure 5d): 19
  survival (Figure 5d): 100%
[5]; 2x50, Day 6.99
  animals alive (Figure 5d): 19
  survival (Figure 5d): 100%
[5]; 2x50, Day 7.01
  animals alive (Figure 5d): 17
  survival (Figure 5d): 89%
[5]; 2x50, Day 7.99
  animals alive (Figure 5d): 17
  survival (Figure 5d): 89%
[5]; 2x50, Day 8.01
  animals alive (Figure 5d): 16
  survival (Figure 5d): 84%
[5]; 2x50, Day 8.1
  animals alive (Figure 5d): 16
  survival (Figure 5d): 84%
[5]; 2 × 25 mg/kg/day
  bulk calcium in carotid artery and femoral artery: significant reduction in bulk calcium
[5]; 2 × 25 mg/kg/day s.c. (0/18)
  Mortality rate: 0%
